These are literature values, as cited in patent publication US20230270635A1, “METHODS AND COMPOSITIONS FOR COSMETIC APPLICATIONS” (GLO Pharma, Inc., priority 2021, published 2023).

The conditions of the series: non-ionic surfactants with HLB of 10 or less, Table 1.

Turning to `CCCCCCCC(=O)OCC(O)CO` (stereo not shown) [Glyceryl caprylate], the HLB entry is on record as “HLB = 5-6”.

As for `CCCCCCCCCCCCCCCCCC(=O)OCC(O)CO` (stereo not shown) [Glyceryl stearate], the HLB entry was “HLB = 3.8”. With Sorbitan trioleate, the HLB result is listed as “HLB = 1.8”. Take Sorbitan monooleate: the HLB entry is on record as “HLB = 4.3”. Turning to Sorbitan monopalmitate, the HLB result is given as “HLB = 6.7”. Regarding “Polyoxyethylene (3) Oleyl Ether [Oleth-3]”, the HLB entry is reported as “HLB = 6.6”.

On to Propylene glycol monolaurate, for which the HLB entry was “HLB=3”. Regarding “Polyoxyethylene (8) dilaurate [PEG-8 dilaurate]”, the HLB result is on record as “HLB = 10”. Regarding Glyceryl stearate SE, the HLB entry is on record as “HLB = 5.8”. As to Sorbitan Isostearate, the HLB entry is “HLB = 4.7”. With Sorbitan monolaurate, the HLB entry is given as “HLB = 8.6”.

On to Polysorbate 61, for which the HLB result was “HLB = 9.6”.

On to “Polyoxyethylene (4) dilaurate [PEG-4 dilaurate]”, for which the HLB entry is recorded as “HLB = 6”.

Turning to PEG-8 distearate, the HLB entry was “HLB = 8”. On to PEG-8 dioleate, for which the HLB entry is “HLB = 7.2”. Turning to `CCCCCCCCCCCCCCCCCC(=O)OCCO` [Glycol stearate], the HLB entry is listed as “HLB = 2.9”.

Regarding `CCCCCCCCCCCC(=O)OCC(O)CO` (stereo not shown) [Glyceryl laurate], the HLB entry is reported as “HLB = 5.2”. Turning to Sorbitan monostearate, the HLB result is “HLB = 4.7”. For the compound `CCCCCCCCCCCCCCCCOCCOCCO` [Ceteth-2, Diethylene glycol hexadecyl ether], the HLB entry is “HLB = 5.3”. As to Sorbitan sesquioleate, the HLB result is on record as “HLB = 3.7”.

Take PEG-30 dipolyhydroxy-stearate: the HLB entry is given as “HLB = 5.5”. “Polyoxyethylene (2) Oleyl Ether [Oleth-2]”: the HLB entry is “HLB = 4.9”. Take `CCCCCCCCCCCCCCCCCCOCCOCCO` [Steareth-2, 2-(2-octadecoxyethoxy)ethanol]: the HLB entry is “HLB = 4.9”. Regarding `CCCCCCCCCCCCCCCCCC(=O)OCCOC(=O)CCCCCCCCCCCCCCCCC` [Glycol distearate], the HLB entry was “HLB = 1”. With “Polyoxyethylene (5) Oleyl Ether [Oleth-5]”, the HLB result is “HLB = 9”.
